This data set is described as follows: Stability of ketotifen fumarate in borate buffered saline over autoclave cycles, analysed by HPLC. The class given is physicochemical. The settings on record: for % ketotifen: no PAA; for % ketotifen Unsparged: Example 3: buffer with poly(acrylic acid); for % ketotifen Nitrogen Sparged: Example 4: buffer with poly(acrylic acid); for ketotifen stability: after autoclaving. How it is done:
A buffer solution was formed by dissolving 8.3 gm NaCl (from Sigma Aldrich), 9.1 gm boric acid (from Mallinckrodt) and 1 gm sodium borate (from Mallinckrodt) in 1 L deionized water (from Milli Q). […] Ketotifen fumarate (from Sigma Aldrich) was added to prepare a solution of approximately 80 ppm in the buffer solution. The ketotifen solution (3 mL) was placed in vials, autoclaved for the number of cycles shown in Table 1, below and analyzed as a function of autoclave cycle (3 replicate per autoclave cycle) using HPLC using an HP1100 and an Agilent Zorbax Eclipse XDB-C18 and Rapid Resolution HT 50×4.6 mm×1.8μ column and the following conditions:
Mobile Phase: • Eluent A: 17% acetonitrile in 0.025 M dihydrogen potassium phosphate buffer • 0.2% triethylamine, 0.13% o-phosphoric acid • Eluent B: 50% acetonitrile in 0.025 M dihydrogen potassium phosphate buffer • 0.2% triethylamine, 0.13% o-phosphoric acid
Example 1 was repeated, except that the buffer solution was sparged (with nitrogen) overnight (˜12 hrs) at about 370 standard cubic centimeter per minute (SCCM) and subsequently transferred to a nitrogen box (<0.5% oxygen). The ketotifen solution of about 90 ppm was prepared and placed in vials as described above, but in nitrogen box. The vials were autoclaved and analyzed as described in Example 1.
Examples 1 and 2 was repeated, except that 10 gm of poly(acrylic acid) (PAA, Mw, 225,000, from Polysciences, Inc., 20% in water) was added to the buffer solution. The vials were autoclaved and analyzed as described in Example 1.

Where a name gives a salt, the structure may show the parent alone.

Turning to `CN1CCC(=C2c3ccccc3CC(=O)c3sccc32)CC1` [ketotifen, Ketotifen fumarate], the “% ketotifen” value (Example 1: ~80 ppm in buffer pH 7.65, unsparged, autoclave cycle 0) came out at 100%; the “% ketotifen” value (Example 1: ~80 ppm in buffer pH 7.65, unsparged, autoclave cycle 1) was determined as 0%; the “% ketotifen” value (Example 1: ~80 ppm in buffer pH 7.65, unsparged, autoclave cycle 2) is 0%; the “% ketotifen” value (Example 1: ~80 ppm in buffer pH 7.65, unsparged, autoclave cycle 3) turned out to be 0%; the “% ketotifen” value (Example 2: ~90 ppm, buffer nitrogen sparged ~12 hrs, nitrogen box, autoclave cycle 0) was 100%; the “% ketotifen” value (Example 2: ~90 ppm, buffer nitrogen sparged ~12 hrs, nitrogen box, autoclave cycle 1) amounted to 98%. Also, the “% ketotifen” value (Example 2: ~90 ppm, buffer nitrogen sparged ~12 hrs, nitrogen box, autoclave cycle 2) was found to be 98% and the “% ketotifen” value (Example 2: ~90 ppm, buffer nitrogen sparged ~12 hrs, nitrogen box, autoclave cycle 3) is on record as 98%. Further, the “% ketotifen Unsparged” value is, setting by setting: (autoclave cycle 0) 100%; (autoclave cycle 1) 94%; (autoclave cycle 2) 81%; (autoclave cycle 3) 66%. Also, the “% ketotifen Nitrogen Sparged” value runs as follows: (autoclave cycle 0) 100%; (autoclave cycle 1) 99%; (autoclave cycle 2) 99%; (autoclave cycle 3) 98%. The ketotifen stability (buffer sparged and solution kept under nitrogen (Table 2)) came to 98%; the ketotifen stability (unsparged buffer (Table 1)) stood at 0%.

Values taken from US20110201596A1, “Methods for Providing Oxidatively Stable Ophthalmic Compositions” (priority 2005, published 2011).
